Experimental data reported in patent publication US12721836B2, “Alpha-methyl-L-tryptophan as an orally active drug for treating or preventing metabolic conditions” (Texas Tech University System, priority 2021, dated 2026).
“Also recorded” adds a separate entry of the source. Each block holds one molecule with its values, some of them ahead of it.

Legend:
[1] = Body weight in Slc6a14-null male mice on high-fat diet (D- vs L-isomer); format: in vivo; details: Slc6a14-null male mice on HFD; 1 mg/ml in drinking water, one week
From the text: (§1) C57B16 mice and oblob (leptin-deficient) mice were from Jackson Laboratories (Bar Harbor, ME). Slc6a14-null mice (Slc6a14^y/− males and Slc6a14^−/− females) on C57BU/6 background were generated in Applicant's lab and have been used to assess the role of this transporter in breast cancer and colon cancer. Mice had free access to water and diet ad libitum. Age- and gender-matched mice were used in control groups (no treatment). Mice were fed a normal diet (ND) (50 IF/6F 5V5R, Labdiet, St. Louis, MO) or a high-fat diet (HFD; 55% calorie from fat) (TD93075; Teklad diets, Madison, WI). The protocol was approved by the Institutional Animal Care and Use Committee of the Texas Tech University Health Sciences Center, Lubbock, TX, USA (IACUC approval number: 15002 for breeding protocol and 18005 for experimental protocol).
Next, Applicant aimed to determine which isomer in the enantiomeric mixture of α-methyltryptophan elicited a weight-reducing effect. For this, Applicant used the Slc6a14-null male mice on a high-fat diet as a model of obesity. Applicant selected this mouse model of obesity for initial experiments because the weight-reducing effect of α-MT is independent of what the drug does to the transport function of Slc6a14.
Applicant administered the D- and L-isomers separately to these mice on a high-fat diet at a dose of 1 mg/ml in drinking water for one week. […]

[2] = Body weight in wild type male mice on normal or high-fat diet; format: in vivo
From the text: as §1
Administration of α-methyltryptophan to wild type mice on a high-fat diet would make the mice gain more weight as we found in Slc6a14-null male mice. The results turned out to be quite the opposite. When exposed to the drug for 1 week (2 mg/ml in drinking water; DL-enantiomeric mixture, α-MT), untreated wild type male mice on a high-fat diet gained weight whereas mice exposed to the drug lost weight (FIG. 1B). Since the deletion of Slc6a14 increased the weight gain whereas administration of α-MT to wild type mice decreased the weight gain, the effect of the drug on the body weight has little to do with its ability to block the transporter.
Next, Applicant examined the effect of α-MLT on the body weight in WT C57BL/6 male mice on a normal diet or a high-fat diet (55% calories from fat). The drug was given in drinking water (1 mg/ml). Both with the normal diet and the high-fat diet, mice gained weight when not treated with α-MLT (FIGS. 2A-B). […] This weight-reducing effect was evident with both diets.
(§2) When the drug was withdrawn, mice began to gain weight (FIG. 2B). At 4-weeks of drug exposure, circulating levels of glucose and leptin were measured. Blood glucose was higher in control (i.e., untreated) mice on the high-fat diet than in those on the normal diet (FIGS. 2C-2D). The same was true with leptin levels, which correspond to fat content (FIGS. 2C-2D).

[3] = Circulating glucose and leptin in wild type male mice; format: in vivo; details: WT male mice, ND or HFD (independent of diet); 4 weeks, 1 mg/ml in drinking water; 4-h fasting
Experimental: Animals were fasted for 4 h and blood was collected as described above. Blood samples were centrifuged at 1500×g for 20 min and the serum samples were collected and kept at −80° C. until analyzed. Leptin was measured using the mouse/rat Quantikine ELISA kit (MOB00B, R & D Systems, MN).
as §2
(§3) Applicant then performed glucose-tolerance test in control and α-MLT-treated (2-week treatment; 1 mg/ml in drinking water) mice which were fed the high-fat diet for 12 weeks. […] At the end of the experiment, mice were killed, and liver and abdominal fat pad were excised and weighed. Treatment with α-MLT reduced the weight of the liver and the abdominal fat (FIGS. 3C-D).

[4] = Intraperitoneal glucose tolerance test in wild type mice on high-fat diet; format: in vivo; details: WT mice fed HFD 12 weeks; 2-week treatment, 1 mg/ml in drinking water
Experimental: (§4) Intraperitoneal GTT was done in mice fasted for 4 h. Blood glucose was determined using the TRUE track blood glucose monitor (Trividia Health Inc, Fort Lauderdale, FL) at 0, 15, 30, 60, 90 and 120 min after i.p. injection of glucose (2 g/kg body weight).
as §3

[5] = Liver and abdominal fat pad weight in wild type mice on high-fat diet; format: in vivo; details: WT male mice on HFD; 1 mg/ml in drinking water
Experimental: as §3

[6] = Hepatic steatosis (Oil-red-O staining) in wild type mice on high-fat diet; format: in vivo; details: WT mice on HFD 14 weeks; treatment during last two weeks
Experimental: Liver tissue was excised and weighed immediately, snap-frozen in liquid nitrogen, and stored at −80° C. For Oil-red-O (ORO) staining, tissues were OCT embedded, frozen at −20° C., and cut, followed by staining. Slides made from formalin-fixed, paraffin-embedded liver blocks were stained with hematoxylin and eosin (H & E).
Wild type mice developed fatty liver when fed a high-fat diet for 14 weeks as evident from Oil-red-O staining of the liver sections for neutral lipids (FIG. 3E). […] In this experiment, mice were fed the high-fat diet for 12-weeks, after which the mice were divided into two groups, one with no α-MLT exposure and the other with α-MLT administration. The drug treatment was continued for two additional weeks, and all through the experiment, both groups were continuously fed the same high-fat diet.

[7] = Body weight and other parameters in wild type female mice; format: in vivo; details: 1 mg/ml in drinking water, 2 weeks
Experimental: The experiments described above were done with male mice. To see if α-MLT elicits a similar weight-loss effect in female mice, wild type female mice were exposed to α-MLT (1 mg/ml in drinking water) at 3 months of age. The untreated mice gained weight and α-MLT-exposed mice lost weight (FIG. 4A). At end of 2 weeks treatment, mice were killed and mammary fat pad and liver were excised and weighed. The weights of both tissues decreased in the treated mice (FIGS. 4B-C).

[8] = Body weight, food intake, glucose and glucose tolerance in oblob mice on normal diet; format: in vivo
Experimental: as §4
oblob mice are deficient in leptin and therefore obese even on a normal diet. […] Applicant used 12-week-old male oblob mice to evaluate the weight-reducing effect of α-MLT (1 mg/ml in drinking water). There was a gradual weight gain on a normal diet in control mice without the drug (FIG. 5A). In contrast, mice exposed to α-MLT lost weight. At the end of 3-week drug exposure, the reversibility of α-MLT effect was evaluated by withdrawing the drug. […] At the end of the three-week treatment with α-MLT, mice were killed and the weights of the liver and abdominal fat pad were determined.
Applicant also monitored food intake, blood glucose, and glucose tolerance in control mice and α-MLT-treated mice.

[9] = Serum metabolic panel (lipid profile, kidney and liver function) in wild type mice on high-fat diet; format: in vivo; details: WT mice on HFD, 1 mg/ml in drinking water, 4 weeks
Experimental: At the end of the experiment, mice were fasted for 4 h, and blood was collected via orbital sinus using local anesthesia proparacaine. Serum was prepared by centrifugation of the clotted blood, and used for metabolic panel. This was done at our Laboratory Animal Resources Center.
Applicant evaluated the serum profile for metabolites and enzymes to assess the impact of α-MLT (4 weeks treatment; 1 mg/ml in drinking water) in normal mice which were on the high-fat diet for three months prior to initiation of the drug treatment. These tests were designed to assess the function of the kidneys and liver.

[10] = rats; orally 150 mg/kg per day; cited from earlier work
[11] = oblob male mice on normal diet, 1 mg/ml in drinking water, three weeks
[12] = oblob mice on normal diet, three-week treatment

Compound: C[C@@](N)(Cc1c[nH]c2ccccc12)C(=O)O [α-MDT, α-methyl-D-tryptophan, reference compound]
weight-reducing effect (body weight) [1]: negligible effect

Compound: CC(N)(Cc1c[nH]c2ccccc12)C(=O)O (racemic) [α-MT, α-methyl-DL-tryptophan]
body weight gain/loss ([2]; wild type male mice on HFD, 2 mg/ml in drinking water, 1 week): lost weight

Albumin ([9]; mean ± S.E.M, N=5): 1.90 ± 0.04 g/dL | BUN ([9]; mean ± S.E.M, N=5): 34.2 ± 2.6 mg/dL | Creatinine ([9]; mean ± S.E.M, N=5): 0.30 ± 0.04 mg/dL | Globulin ([9]; mean ± S.E.M, N=5): 2.35 ± 0.09 g/dL | Total bilirubin ([9]; mean ± S.E.M, N=5): 0.6 ± 0.1 mg/dL | Total protein ([9]; mean ± S.E.M, N=5): 4.25 ± 0.06 g/dL
Compound: C[C@](N)(Cc1c[nH]c2ccccc12)C(=O)O [α-MLT, α-methyl-L-tryptophan]
onset of weight-reducing effect ([2]; 1 mg/ml in drinking water): within a day | body weight ([2]; WT C57BL/6 male mice on normal diet or high-fat diet (both diets), 1 mg/ml in drinking water): decrease in body weight | reversibility of effect on body weight ([2]; upon withdrawal of the drug): reversible | weight-reducing effect (body weight) [1]: active as a weight-reducing agent | circulating level of glucose [3]: significant decrease | circulating level of leptin [3]: significant decrease | glucose tolerance (i.p. GTT) [4]: better glucose tolerance | weight of the abdominal fat [5]: reduced | weight of the liver [5]: reduced | hepatic steatosis (Oil-red-O neutral lipids) [6]: almost completely prevented | blood glucose level [7]: decreased | body weight [7]: lost weight | liver weight [7]: decreased | mammary fat pad weight [7]: decreased | serum leptin level [7]: decreased | body weight ([8]; 12-week-old male oblob mice on normal diet, 1 mg/ml in drinking water, 3 weeks): lost weight; also recorded: decreased | food intake ([8]; oblob male mice on normal diet, 1 mg/ml in drinking water): decreased food intake | blood glucose [8, 11]: lower | insulin sensitivity (glucose tolerance test) [8, 11]: improved insulin sensitivity | abdominal fat [8, 12]: significantly reduced | liver weight [8, 12]: significantly reduced | reversibility of effect on body weight ([8]; oblob mice, drug withdrawn after 3-week exposure): started gaining weight | kidney function (blood urea nitrogen, creatinine) [9]: no evidence of compromise in kidney function | liver function (bilirubin, AST) [9]: no compromise in liver function | AST ([9]; mean ± S.E.M, N=5): 79.5 ± 16.3 U/I | serum Cholesterol ([9]; mean ± S.E.M, N=5): 106 ± 3 mg/dL | serum Triglycerides ([9]; mean ± S.E.M, N=5): 97 ± 17 mg/dL | adverse effects [10]: no noticeable adverse effects
